Measurements as given in patent US8883963B2 (Cadila Healthcare Limited, priority 2007, dated 2014).
Non-standard residues stand in square brackets, D forms with d. Residues, ends and D or L forms follow the SMILES beside them. ξ: configuration not given here. ξBip(2'-Et-4'-OMe) = CCc1cc(OC)ccc1-c1ccc(CC(N)C(=O)O)cc1; ξNva(5-(3-Cl-Ph)) = NC(CCCc1cccc(Cl)c1)C(=O)O; Ac5c = NC1(C(=O)O)CCCC1

Assays:
[1] = system: RIN5F (Rat Insulinoma) cells; test: In vitro glucose-dependent insulin secretion (RIN5F cell assay screening protocol); format: cell-based; conditions: 16.7 mM glucose load
human glucagon receptor = target: T1, human glucagon receptor (Homo sapiens, UniProt P47871); test: In vitro human glucagon antagonist activity (inhibition of cAMP production) in CHO/human glucagon R cells; format: cell-based; conditions: with saturated concentration of glucagon peptide
T1 construct: The full-length cDNA was cloned in pcDNA3.1 (Invitrogen); expressed in transfected cells
T1 sequence (P47871 26-477): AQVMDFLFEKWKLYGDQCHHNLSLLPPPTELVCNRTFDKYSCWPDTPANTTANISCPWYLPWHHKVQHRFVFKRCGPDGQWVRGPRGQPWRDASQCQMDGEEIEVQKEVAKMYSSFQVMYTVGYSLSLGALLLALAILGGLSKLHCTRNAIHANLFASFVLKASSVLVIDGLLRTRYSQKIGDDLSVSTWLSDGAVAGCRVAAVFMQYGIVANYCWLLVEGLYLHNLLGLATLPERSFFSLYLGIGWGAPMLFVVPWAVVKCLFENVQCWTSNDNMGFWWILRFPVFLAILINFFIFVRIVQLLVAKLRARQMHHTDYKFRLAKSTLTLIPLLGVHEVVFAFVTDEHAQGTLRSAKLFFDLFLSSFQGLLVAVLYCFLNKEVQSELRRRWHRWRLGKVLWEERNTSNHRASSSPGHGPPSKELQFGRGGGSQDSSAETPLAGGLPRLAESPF

DPP IV = DPP IV (Homo sapiens, UniProt P27487); test: Stability against DPP IV enzyme; format: in vitro ADME; conditions: 37° C.; for % degradation of peptidomimetics in 24 h when incubated with DPP-IV enzyme: 2 μM peptidomimetic; for half-life at 2 μM: DPP IV enzyme, pH 7.8, 2 μM peptidomimetic, read-out: half-life (t1/2) when incubated with DPP-IV enzyme
Sequence of DPP IV (P27487 whole entry, species assumed): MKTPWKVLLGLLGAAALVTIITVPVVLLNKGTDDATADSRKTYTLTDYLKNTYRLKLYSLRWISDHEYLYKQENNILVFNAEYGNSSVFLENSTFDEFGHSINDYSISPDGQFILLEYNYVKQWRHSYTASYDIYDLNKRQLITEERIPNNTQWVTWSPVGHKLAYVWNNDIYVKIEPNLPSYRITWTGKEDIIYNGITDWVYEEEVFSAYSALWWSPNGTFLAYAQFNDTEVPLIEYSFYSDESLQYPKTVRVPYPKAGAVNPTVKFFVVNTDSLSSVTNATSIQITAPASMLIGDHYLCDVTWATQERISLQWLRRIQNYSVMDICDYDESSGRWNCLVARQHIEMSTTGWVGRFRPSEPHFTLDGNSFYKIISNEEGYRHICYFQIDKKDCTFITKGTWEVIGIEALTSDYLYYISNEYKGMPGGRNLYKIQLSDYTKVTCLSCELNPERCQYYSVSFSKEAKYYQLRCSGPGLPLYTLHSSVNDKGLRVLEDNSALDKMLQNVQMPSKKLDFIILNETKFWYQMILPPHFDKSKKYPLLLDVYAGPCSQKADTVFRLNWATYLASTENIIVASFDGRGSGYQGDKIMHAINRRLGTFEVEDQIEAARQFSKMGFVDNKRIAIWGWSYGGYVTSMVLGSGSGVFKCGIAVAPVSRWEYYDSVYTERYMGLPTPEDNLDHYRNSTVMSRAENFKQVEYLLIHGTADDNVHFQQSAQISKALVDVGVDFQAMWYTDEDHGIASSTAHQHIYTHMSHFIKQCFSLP
Procedure: (§1) Reactions were terminated by the addition of TFA/H2O (15 mL, 10% (v/v)). […] The column was equilibrated with TFA/H20, at a flow rate of 1 mL/min.

[2] = Stability in human plasma; format: in vitro ADME; conditions: 2 μM peptidomimetic, pooled human plasma, 37° C.; for half-life at 2 μM: pH 7.8, read-out: half-life (t1/2) when incubated with human plasma
Procedure: as §1

[3] = Stability in simulated gastric fluid; format: in vitro ADME; conditions: 2 μM peptidomimetic, simulated gastric fluid pH 1.5, 37° C.; for half-life at 2 μM: read-out: half-life (t1/2) when incubated with simulated gastric fluid
Procedure: as §1

[4] = Stability in simulated intestinal fluid; format: in vitro ADME; conditions: 2 μM peptidomimetic, simulated intestinal fluid pH 7.5, 37° C.; for half-life at 2 μM: read-out: half-life (t1/2) when incubated with simulated intestinal fluid
Procedure: as §1

[5] = Stability in liver microsomes; format: in vitro ADME; conditions: 2 μM peptidomimetic, human liver microsomes, 37° C.; for half-life at 2 μM: pH 7.8, read-out: half-life (t1/2) when incubated with liver microsomes
Procedure: as §1

Human GLP-1 receptor = target: T2, Human GLP-1 receptor (Homo sapiens, UniProt P43220); test: In vitro Human GLP-1 R agonist activity (cyclic AMP determination) in CHO/human GLP1R cells; format: cell-based
T2 construct: The full-length cDNA was cloned in pcDNA3.1(+); expressed in transfected cells
T2 sequence (P43220 24-463): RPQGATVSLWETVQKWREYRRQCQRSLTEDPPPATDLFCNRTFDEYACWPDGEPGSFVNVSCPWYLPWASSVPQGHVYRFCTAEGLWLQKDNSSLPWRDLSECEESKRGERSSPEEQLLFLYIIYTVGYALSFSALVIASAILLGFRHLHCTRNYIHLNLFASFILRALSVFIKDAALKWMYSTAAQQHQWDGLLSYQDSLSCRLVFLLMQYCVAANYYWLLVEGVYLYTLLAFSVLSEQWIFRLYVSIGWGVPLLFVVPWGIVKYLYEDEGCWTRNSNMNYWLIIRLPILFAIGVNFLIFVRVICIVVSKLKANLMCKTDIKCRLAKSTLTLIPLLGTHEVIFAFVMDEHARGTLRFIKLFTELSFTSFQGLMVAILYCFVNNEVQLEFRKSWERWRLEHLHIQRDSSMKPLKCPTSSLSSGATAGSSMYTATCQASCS

Row | Structure (SMILES) | Human Glucagon receptor antagonistic activity shown as inhibition of cAMP production of Glucagon peptide (human glucagon receptor; 1 nM test compound) | Human Glucagon receptor antagonistic activity shown as inhibition of cAMP production of Glucagon peptide (human glucagon receptor; 10 nM test compound) | Human Glucagon receptor antagonistic activity shown as inhibition of cAMP production of Glucagon peptide (human glucagon receptor; 100 nM test compound) | Human Glucagon receptor antagonistic activity shown as inhibition of cAMP production of Glucagon peptide (human glucagon receptor; 1 μM test compound) | Human Glucagon receptor antagonistic activity shown as inhibition of cAMP production of Glucagon peptide (human glucagon receptor; 10 μM test compound) | % degradation of peptidomimetics in 24 h when incubated with DPP-IV enzyme (DPP IV) | % degradation of peptidomimetics in 24 h when incubated with human plasma [2] | % degradation of peptidomimetics in 24 h when incubated with simulated gastric fluid [3] | half-life at 2 μM [3] | % degradation of peptidomimetics in 24 h when incubated with simulated intestinal fluid [4] | half-life at 2 μM [4] | % degradation of peptidomimetics in 24 h when incubated with liver microsomes [5] | half-life at 2 μM [5] | half-life at 2 μM (DPP IV) | half-life at 2 μM [2] | Human GLP-1 R activity (cAMP release), % activity with respect to control (Human GLP-1 receptor; 1 nM test compound) | Human GLP-1 R activity (cAMP release), % activity with respect to control (Human GLP-1 receptor; 10 nM test compound) | Human GLP-1 R activity (cAMP release), % activity with respect to control (Human GLP-1 receptor; 100 nM test compound) | Human GLP-1 R activity (cAMP release), % activity with respect to control (Human GLP-1 receptor; 1 μM test compound) | Human GLP-1 R activity (cAMP release), % activity with respect to control (Human GLP-1 receptor; 10 μM test compound) | other results
1 | CCc1cc(OC)ccc1-c1ccc(CC(NC(=O)[C@H](CC(=O)O)NC(=O)[C@H](CO)NC(=O)[C@@H](NC(=O)[C@H](Cc2ccccc2)NC(=O)[C@@H](NC(=O)CNC(=O)C(CCC#N)NC(=O)C(C)(C)NC(=O)[C@@H](N)Cc2c[nH]cn2)[C@@H](C)O)[C@@H](C)O)C(=O)NC(CCCc2ccc(F)cc2F)C(N)=O)cc1 (single isomer, unassigned) [compound 78] | 22 ± 0.03 pmol/ml/μg prt | 21 ± 0.05 pmol/ml/μg prt | 20 ± 0.07 pmol/ml/μg prt | 18 ± 0.04 pmol/ml/μg prt | 18 ± 0.03 pmol/ml/μg prt | 70% | 71% | 100% | 0.5 h | 100% | 0.5 h | 100% | 0.5 h | – | – | – | – | – | – | – | Insulin secretion ([1]; 0.1 nM test compd.): 16.6 ± 0.41 pg/µg/h; Insulin secretion ([1]; 1 nM test compd.): 22.9 ± 0.32 pg/µg/h; Insulin secretion ([1]; 10 nM test compd.): 36.7 ± 0.11 pg/µg/h; half-life (t1/2) when incubated with human plasma [2]: (9) h
2 | CCc1cc(OC)ccc1-c1ccc(CC(NC(=O)[C@H](CC(=O)O)NC(=O)[C@H](CO)NC(=O)[C@@H](NC(=O)[C@H](Cc2ccccc2)NC(=O)[C@@H](NC(=O)CNC(=O)[C@H](CCC(N)=O)NC(=O)C2(NC(=O)[C@@H](N)Cc3c[nH]cn3)CCCC2)[C@@H](C)O)[C@@H](C)O)C(=O)NC(CCCc2cccc(Cl)c2)C(N)=O)cc1 (stereo partly drawn) [compound 27] (H-H[Ac5c]QGTFTSD[ξBip(2'-Et-4'-OMe)][ξNva(5-(3-Cl-Ph))]-NH2) | – | – | – | – | – | 00% | 00% | 00% | > 24 h | 00% | > 24 h | 31% | – | > 24 h | > 24 h | – | – | – | – | – | Insulin secretion ([1]; 0.1 nM test compd.): 16.4 ± 0.12 pg/µg/h; Insulin secretion ([1]; 1 nM test compd.): 22.7 ± 0.17 pg/µg/h; Insulin secretion ([1]; 10 nM test compd.): 36.6 ± 0.05 pg/µg/h; half-life (t1/2) when incubated with liver microsomes [5]: (5) h
3 | CCc1cc(OC)ccc1-c1ccc(CC(C(=O)N(C)C(CCCc2ccccc2F)C(N)=O)N(C)C(=O)[C@H](CC(=O)O)NC(=O)[C@H](CO)NC(=O)[C@@H](NC(=O)C(C)(Cc2ccccc2F)NC(=O)[C@@H](NC(=O)CNC(=O)C(CCC#N)NC(=O)C(C)(C)NC(=O)[C@@H](N)Cc2c[nH]cn2)[C@H](C)O)[C@H](C)O)cc1 (single isomer, unassigned) [compound 144] | 5 ± 0.09 pmol/ml/μg prt | 3 ± 0.11 pmol/ml/μg prt | 0 pmol/ml/μg prt | 0 pmol/ml/μg prt | 0 pmol/ml/μg prt | 76% | 78% | 14% | – | 43% | – | 80% | 1 h | 9 h | 8 h | 55 ± 0.16% | 89 ± 0.05% | 93 ± 0.09% | 99 ± 0.02% | 99 ± 0.04% | half-life (t1/2) when incubated with simulated gastric fluid [3]: (8) h; half-life (t1/2) when incubated with simulated intestinal fluid [4]: (6) h
4 | CCc1cc(OC)ccc1-c1ccc(CC(CNC(CCCc2ccccc2F)C(N)=O)NC[C@H](CC(=O)O)NC(=O)[C@H](CO)NC(=O)[C@@H](NC(=O)C(C)(Cc2ccccc2F)NC(=O)[C@@H](NC(=O)CNC(=O)C(CCC#N)NC(=O)C(C)(C)NC(=O)[C@@H](N)Cc2c[nH]cn2)[C@H](C)O)[C@H](C)O)cc1 (single isomer, unassigned) [compound 204] | 6 ± 0.05 pmol/ml/μg prt | 5 ± 0.04 pmol/ml/μg prt | 2 ± 0.16 pmol/ml/μg prt | 0 pmol/ml/μg prt | 0 pmol/ml/μg prt | 00% | 00% | 00% | > 24 h | 00% | > 24 h | 32% | – | > 24 h | > 24 h | 96 ± 0.02% | 99 ± 0.46% | 99 ± 0.41% | 99 ± 0.66% | 99 ± 0.03% | half-life (t1/2) when incubated with liver microsomes [5]: (5) h
5 | CCc1cc(OC)ccc1-c1ccc(CC(C(=O)N(C)C(CCCc2ccccc2F)C(N)=O)N(C)C(=O)[C@H](CC(=O)O)N(C)C(=O)[C@H](CO)NC(=O)[C@@H](NC(=O)C(C)(Cc2ccccc2F)NC(=O)[C@@H](NC(=O)CNC(=O)C(CCC#N)NC(=O)C(C)(C)NC(=O)[C@@H](N)Cc2c[nH]cn2)[C@H](C)O)[C@H](C)O)cc1 (single isomer, unassigned) [compound 156] | 5 ± 0.01 pmol/ml/μg prt | 2 ± 0.17 pmol/ml/μg prt | 0 pmol/ml/μg prt | 0 pmol/ml/μg prt | 0 pmol/ml/μg prt | 70% | 71% | 14% | – | 40% | – | 78% | 1 h | 9 h | 8 h | 86 ± 0.11% | 99 ± 0.09% | 99 ± 0.06% | 99 ± 0.14% | 99 ± 0.19% | half-life (t1/2) when incubated with simulated gastric fluid [3]: (8) h; half-life (t1/2) when incubated with simulated intestinal fluid [4]: (6) h
